Test results published in PMC5808105, “Sublingual Administration of Sildenafil Oro-dispersible Film: New Profiles of Drug Tolerability and Pharmacokinetics for PDE5 Inhibitors” (Frontiers in Pharmacology, 2018).

Columns and labels:
[1] = Trans-mucosal permeation test (vertical diffusion system); assay type: in vitro ADME; settings: HBSS, donor-receiver chambers, 0-40 min; equivalent to 50 mg Sild; result in words
Experimental: Trans-mucosal permeation profile of Sild was evaluated in vitro by using a specific device according to [Delvadia et al. (2012)] appropriately modified. Briefly, the device consisted in a vertical diffusion system featured by donor–receiver chambers separated by a disposable cellulose–acetate membrane (pore 0.45 μm). The donor cell contained 1.5 ml of HBSS, whereas the receiver chamber was part of a closed recirculation circuit of 30 ml including the volumes of tubing and reservoir. Sampling was performed from receiver chamber reservoir at the time intervals of 0, 5, 10, 20, 30, and 40 min and replaced by an equivalent volume of fresh HBSS. The samples were analyzed by HPLC-UV for drug content ([Fejős et al., 2014]). Data were normalized on the highest permeated Sild concentration observed for pure Sild citrate. Tests were performed in triplicate and results were reported as mean value ± standard deviation.

[2] = cited from earlier work
[3] = design: method as in Zayed et al., 2012; Sun et al., 2014; settings: result in words; ref Zayed et al., 2012; Sun et al., 2014; cited from earlier work

## CCCc1nn(C)c2c(=O)[nH]c(-c3cc(S(=O)(=O)N4CCN(C)CC4)ccc3OCC)nc12.O=C(O)CC(O)(CC(=O)O)C(=O)O [Sild citrate]
[1]
  permeation of Sild through cellulose acetate membrane: free and fast diffusion between the two chambers

## CCCc1nc(C)c2c(=O)[nH]c(-c3cc(S(=O)(=O)N4CCN(CC)CC4)ccc3OCC)nn12 [Vardenafil]
[2]; ref Center for Drug Evaluation and Research, 2003
  bioavailability: ~15%

## CCCc1nn(C)c2c(=O)[nH]c(-c3cc(S(=O)(=O)N4CCN(C)CC4)ccc3OCC)nc12 [Sild, Sildenafil]
[2]; after oral administration, ref Gupta et al., 2005
  time to peak plasma concentration: 0.5 to 2 h
[2]; ref Gupta et al., 2005
  oral bioavailability: 38–41%
[3]
  water solubility: low water solubility
